# Experimental data as given in PMC7311426, “An amphipathic peptide with antibiotic activity against multidrug-resistant Gram-negative bacteria” (Nature Communications, 2020).
# Residues, ends and D or L forms follow the SMILES beside them.
# Legend:
# P. aeruginosa = test: microbe, parasite or virus in culture
# Summary of the method: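 Broth microdilution in MHB, 2-fold 12-point series from 128 or 64 down to 0.06 or 0.03 μg mL^−1, 5 × 10^5 CFU mL^−1. Extra runs in CAMHB per CLSI and in MHB with 1% agarose; n ≥ 6.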
# [1] = tested on: A. baumannii clinical isolates; test: microbe, parasite or virus in culture; details: clinical isolates
# Summary of the method: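 MIC90 from CLSI broth microdilution (M07-A9) in two clinical-isolate panels. US panel (331 isolates, 2010-2012): AA139 diluted in 0.01% acetic acid/0.1% BSA. Worldwide panel (445 isolates, 2011-2013, four regions): CAMHB, with 0.002% Tween 80 added for AA139 and polymyxin B.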
smiles,measurement,setting,value
"CC(C)[C@@H]1NC(=O)[C@H](Cc2ccc(O)cc2)NC(=O)[C@H](Cc2c[nH]c3ccccc23)NC(=O)[C@@H](NC(=O)[C@H](Cc2ccccc2)NC(=O)CN)CSSC[C@@H](C(=O)N[C@@H](CC(N)=O)C(=O)O)NC(=O)[C@H](CCCNC(=N)N)NC(=O)[C@H](CCCNC(=N)N)NC(=O)[C@H](Cc2ccc(O)cc2)NC(=O)[C@@H]2CSSC[C@H](NC1=O)C(=O)N[C@@H](C)C(=O)N[C@@H](CCCNC(=N)N)C(=O)N[C@@H](CCCNC(=N)N)C(=O)N[C@@H](CC(N)=O)C(=O)NCC(=O)N[C@@H](C)C(=O)N[C@@H](CCCNC(=N)N)C(=O)N[C@@H](C(C)C)C(=O)N2 [AA139] (HELM PEPTIDE1{G.F.C.W.Y.V.C.A.R.R.N.G.A.R.V.C.Y.R.R.C.N}$PEPTIDE1,PEPTIDE1,3:R3-20:R3|PEPTIDE1,PEPTIDE1,7:R3-16:R3$$$V2.0)","MIC, broth microdilution","P. aeruginosa; P. aeruginosa ATCC 27853 spontaneous mutant, AA139 selection 4X, plate 2, colony 4, drug-free passage 1",1 µg/mL
same,"MIC, broth microdilution","P. aeruginosa; P. aeruginosa ATCC 27853 spontaneous mutant, AA139 selection 4X, plate 2, colony 4, drug-free passage 5",0.5 µg/mL
same,"MIC, broth microdilution","P. aeruginosa; P. aeruginosa ATCC 27853 spontaneous mutant, AA139 selection 8X, plate 1, colony 1, drug-free passage 1","1, 1 µg/mL"
same,"MIC, broth microdilution","P. aeruginosa; P. aeruginosa ATCC 27853 spontaneous mutant, AA139 selection 8X, plate 1, colony 1, drug-free passage 5","1, 1 µg/mL"
same,"MIC, broth microdilution","P. aeruginosa; P. aeruginosa ATCC 27853 spontaneous mutant, AA139 selection 8X, plate 1, colony 2, drug-free passage 1",1 µg/mL
same,"MIC, broth microdilution","P. aeruginosa; P. aeruginosa ATCC 27853 spontaneous mutant, AA139 selection 8X, plate 1, colony 2, drug-free passage 5",2 µg/mL
same,"MIC, broth microdilution","P. aeruginosa; P. aeruginosa ATCC 27853 spontaneous mutant, AA139 selection 8X, plate 1, colony 3, drug-free passage 1","1, 1 µg/mL"
same,"MIC, broth microdilution","P. aeruginosa; P. aeruginosa ATCC 27853 spontaneous mutant, AA139 selection 8X, plate 1, colony 3, drug-free passage 5","1, 1 µg/mL"
same,"MIC, broth microdilution","P. aeruginosa; P. aeruginosa ATCC 27853 spontaneous mutant, AA139 selection 8X, plate 1, colony 4, drug-free passage 1","1, 1 µg/mL"
same,"MIC, broth microdilution","P. aeruginosa; P. aeruginosa ATCC 27853 spontaneous mutant, AA139 selection 8X, plate 1, colony 4, drug-free passage 5","1, 1 µg/mL"
same,"MIC, broth microdilution","P. aeruginosa; P. aeruginosa ATCC 27853 spontaneous mutant, AA139 selection 8X, plate 1, colony 5, drug-free passage 1","1, 1 µg/mL"
same,"MIC, broth microdilution","P. aeruginosa; P. aeruginosa ATCC 27853 spontaneous mutant, AA139 selection 8X, plate 1, colony 5, drug-free passage 5","1, 1 µg/mL"
same,BMD MIC,"P. aeruginosa; P. aeruginosa FADDI-070, MDR, PmxR, MHB/CAMHB, mode of 6 replicates",2 µg/mL
same,"MIC, broth microdilution","P. aeruginosa; P. aeruginosa UNT 138-1 spontaneous mutant, AA139 selection 4X, plate 1, colony 1, drug-free passage 1","2, 2 µg/mL"
same,"MIC, broth microdilution","P. aeruginosa; P. aeruginosa UNT 138-1 spontaneous mutant, AA139 selection 4X, plate 1, colony 1, drug-free passage 5","2, 2 µg/mL"
same,"MIC, broth microdilution","P. aeruginosa; P. aeruginosa UNT 138-1 spontaneous mutant, AA139 selection 4X, plate 1, colony 2, drug-free passage 1","1, 1 µg/mL"
same,"MIC, broth microdilution","P. aeruginosa; P. aeruginosa UNT 138-1 spontaneous mutant, AA139 selection 4X, plate 1, colony 2, drug-free passage 5","1, 1 µg/mL"
same,"MIC, broth microdilution","P. aeruginosa; P. aeruginosa UNT 138-1 spontaneous mutant, AA139 selection 4X, plate 1, colony 3, drug-free passage 1","1, 1 µg/mL"
same,"MIC, broth microdilution","P. aeruginosa; P. aeruginosa UNT 138-1 spontaneous mutant, AA139 selection 4X, plate 1, colony 3, drug-free passage 5","1, 1 µg/mL"
same,"MIC, broth microdilution","P. aeruginosa; P. aeruginosa UNT 138-1 spontaneous mutant, AA139 selection 4X, plate 1, colony 4, drug-free passage 1","1, 1 µg/mL"
same,"MIC, broth microdilution","P. aeruginosa; P. aeruginosa UNT 138-1 spontaneous mutant, AA139 selection 4X, plate 1, colony 4, drug-free passage 5","1, 1 µg/mL"
same,"MIC, broth microdilution","P. aeruginosa; P. aeruginosa UNT 138-1 spontaneous mutant, AA139 selection 4X, plate 1, colony 5, drug-free passage 1",2 µg/mL
same,"MIC, broth microdilution","P. aeruginosa; P. aeruginosa UNT 138-1 spontaneous mutant, AA139 selection 4X, plate 1, colony 5, drug-free passage 5",1 µg/mL
same,"MIC, broth microdilution","P. aeruginosa; P. aeruginosa UNT 138-1 spontaneous mutant, AA139 selection 4X, plate 1, colony 6, drug-free passage 1",2 µg/mL
same,"MIC, broth microdilution","P. aeruginosa; P. aeruginosa UNT 138-1 spontaneous mutant, AA139 selection 4X, plate 1, colony 6, drug-free passage 5",1 µg/mL
same,"MIC, broth microdilution","P. aeruginosa; P. aeruginosa UNT 138-1 spontaneous mutant, AA139 selection 4X, plate 1, colony 7, drug-free passage 1",2 µg/mL
same,"MIC, broth microdilution","P. aeruginosa; P. aeruginosa UNT 138-1 spontaneous mutant, AA139 selection 4X, plate 1, colony 7, drug-free passage 5",1 µg/mL
same,"MIC, broth microdilution","P. aeruginosa; P. aeruginosa UNT 138-1 spontaneous mutant, AA139 selection 4X, plate 2, colony 1, drug-free passage 1","2, 2 µg/mL"
same,"MIC, broth microdilution","P. aeruginosa; P. aeruginosa UNT 138-1 spontaneous mutant, AA139 selection 4X, plate 2, colony 1, drug-free passage 5","2, 2 µg/mL"
same,"MIC, broth microdilution","P. aeruginosa; P. aeruginosa UNT 138-1 spontaneous mutant, AA139 selection 4X, plate 2, colony 2, drug-free passage 1",2 µg/mL
same,"MIC, broth microdilution","P. aeruginosa; P. aeruginosa UNT 138-1 spontaneous mutant, AA139 selection 4X, plate 2, colony 2, drug-free passage 5",1 µg/mL
same,"MIC, broth microdilution","P. aeruginosa; P. aeruginosa UNT 138-1 spontaneous mutant, AA139 selection 4X, plate 2, colony 3, drug-free passage 1","2, 2 µg/mL"
same,"MIC, broth microdilution","P. aeruginosa; P. aeruginosa UNT 138-1 spontaneous mutant, AA139 selection 4X, plate 2, colony 3, drug-free passage 5","2, 2 µg/mL"
same,"MIC, broth microdilution","P. aeruginosa; P. aeruginosa UNT 138-1 spontaneous mutant, AA139 selection 4X, plate 2, colony 4, drug-free passage 1",2 µg/mL
same,"MIC, broth microdilution","P. aeruginosa; P. aeruginosa UNT 138-1 spontaneous mutant, AA139 selection 4X, plate 2, colony 4, drug-free passage 5",1 µg/mL
same,"MIC, broth microdilution","P. aeruginosa; P. aeruginosa UNT 138-1 spontaneous mutant, AA139 selection 4X, plate 2, colony 5, drug-free passage 1",2 µg/mL
same,"MIC, broth microdilution","P. aeruginosa; P. aeruginosa UNT 138-1 spontaneous mutant, AA139 selection 4X, plate 2, colony 5, drug-free passage 5",1 µg/mL
same,"MIC, broth microdilution","P. aeruginosa; P. aeruginosa UNT 138-1 spontaneous mutant, AA139 selection 4X, plate 2, colony 6, drug-free passage 1",2 µg/mL
same,"MIC, broth microdilution","P. aeruginosa; P. aeruginosa UNT 138-1 spontaneous mutant, AA139 selection 4X, plate 2, colony 6, drug-free passage 5",1 µg/mL
same,"MIC, broth microdilution","P. aeruginosa; P. aeruginosa UNT 138-1 spontaneous mutant, AA139 selection 4X, plate 2, colony 7, drug-free passage 1",2 µg/mL
same,"MIC, broth microdilution","P. aeruginosa; P. aeruginosa UNT 138-1 spontaneous mutant, AA139 selection 4X, plate 2, colony 7, drug-free passage 5",1 µg/mL
same,"MIC, broth microdilution","P. aeruginosa; P. aeruginosa UNT 138-1 spontaneous mutant, AA139 selection 8X, plate 1, colony 1, drug-free passage 1",2 µg/mL
same,"MIC, broth microdilution","P. aeruginosa; P. aeruginosa UNT 138-1 spontaneous mutant, AA139 selection 8X, plate 1, colony 1, drug-free passage 5",1 µg/mL
same,"MIC, broth microdilution","P. aeruginosa; P. aeruginosa UNT 138-1 spontaneous mutant, AA139 selection 8X, plate 1, colony 2, drug-free passage 1","1, 1 µg/mL"
same,"MIC, broth microdilution","P. aeruginosa; P. aeruginosa UNT 138-1 spontaneous mutant, AA139 selection 8X, plate 1, colony 2, drug-free passage 5","1, 1 µg/mL"
same,"MIC, broth microdilution","P. aeruginosa; P. aeruginosa UNT 138-1 spontaneous mutant, AA139 selection 8X, plate 1, colony 3, drug-free passage 1","1, 1 µg/mL"
same,"MIC, broth microdilution","P. aeruginosa; P. aeruginosa UNT 138-1 spontaneous mutant, AA139 selection 8X, plate 1, colony 3, drug-free passage 5","1, 1 µg/mL"
same,"MIC, broth microdilution","P. aeruginosa; P. aeruginosa UNT 138-1 spontaneous mutant, AA139 selection 8X, plate 1, colony 4, drug-free passage 1","2, 2 µg/mL"
same,"MIC, broth microdilution","P. aeruginosa; P. aeruginosa UNT 138-1 spontaneous mutant, AA139 selection 8X, plate 1, colony 4, drug-free passage 5","2, 2 µg/mL"
same,"MIC, broth microdilution","P. aeruginosa; P. aeruginosa UNT 138-1 spontaneous mutant, AA139 selection 8X, plate 1, colony 5, drug-free passage 1",1 µg/mL
same,"MIC, broth microdilution","P. aeruginosa; P. aeruginosa UNT 138-1 spontaneous mutant, AA139 selection 8X, plate 1, colony 5, drug-free passage 5",2 µg/mL
same,"MIC, broth microdilution","P. aeruginosa; P. aeruginosa UNT 138-1 spontaneous mutant, AA139 selection 8X, plate 2, colony 1, drug-free passage 1","1, 1 µg/mL"
same,"MIC, broth microdilution","P. aeruginosa; P. aeruginosa UNT 138-1 spontaneous mutant, AA139 selection 8X, plate 2, colony 1, drug-free passage 5","1, 1 µg/mL"
same,MIC90 (A. baumannii),[1],2.0 µg/mL
same,MIC against colistin-resistant isolates (did not surpass),[1],≤ 2 µg/mL
